Laboratory results published in PubChem BioAssay (NCI).
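Where inhibition never reached the appropriate level, the endpoint shown equals the highest concentration tested. Otherwise, values were interpolated linearly from a five-concentration, 48-hour dose response in 96-well plates. The concentration for 50% growth inhibition is given as GI50. The concentration for full growth arrest is given as TGI.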 Where a SMILES comes first, the peptide text is derived from it. The star is where a group is joined. Fmoc = O=C(OCC1c2ccccc2-c2ccccc21)*; OBn = c1ccc(CO*)cc1; tBu = CC(C)(C)*

Columns and labels:
Experiment in all cases: NCI-60 cell line screen, 48 h
[1] = tested on: DU-145 prostate
[2] = tested on: IGROV1 ovarian
[3] = tested on: 786-0 renal
[4] = tested on: UO-31 renal
[5] = tested on: ACHN renal
[6] = tested on: CCRF-CEM leukemia
[7] = tested on: HOP-62 NSCLC
[8] = tested on: SK-MEL-28 melanoma
[9] = tested on: SF-539 CNS
[10] = tested on: SN12C renal

Structure (SMILES) | TGI [1] [µM] | TGI [2] [µM] | TGI [3] [µM] | TGI [4] [µM] | TGI [5] [µM] | TGI [6] [µM] | TGI [7] [µM] | TGI [8] [µM] | TGI [9] [µM] | TGI [10] [µM] | GI50 [9] [µM] | GI50 [6] [µM]
CN(CC(=O)O)c1ncc2c(n1)-c1ccccc1CC2 | > 100 | > 100 | > 100 | > 100 | > 100 | > 100 | > 100 | > 100 | > 100 | > 100 |  | 
COc1ccccc1-c1cc(=O)c2cccnc2[nH]1 | > 100 | > 100 | > 100 | > 100 | > 100 | > 100 | > 100 | > 100 | > 100 | > 100 |  | 
C=C(CCC(=O)N(CCc1c[nH]c2ccccc12)C(=O)c1ccccc1CSCC)C(=O)OC | > 100 | > 100 | > 100 | > 100 | > 100 | > 100 | > 100 | > 100 | > 100 | > 100 |  | 
O=c1c2ccccc2n2nnc3ccc(NCCNCCO)c1c32 | 2.7 | 15.6 | 11.5 | 3.78 | 5.89 | 14.9 | 8.91 | 10.9 | 14.6 | 13.1 |  | 
COc1cc(C2C3=C(NC(=O)C2C#N)c2ccc4ccccc4c2OCC3)cc(OC)c1OC (configuration not stated) | > 100 | 36.9 | > 100 | 28.3 | 30.2 | > 100 | 50.5 | > 100 | 42.3 | 38.9 |  | 
CCOC(=O)CSc1nc(-c2ccc(Cl)cc2)c(C#N)c(=O)[nH]1 | > 100 | > 100 | > 100 | > 100 | > 100 | 89 | > 100 | > 100 | > 100 | > 100 |  | 
CC(=O)CCN1CC2CN=NC2(C#N)C1 (configuration not stated) | > 100 | > 100 | > 100 | > 100 | > 88.7 | > 61 | > 100 | > 100 | > 100 | > 100 | > 100 | 
O=c1[nH]c2ccccc2c(=O)n1/N=C\c1ccccc1O | > 100 | > 100 | > 100 | > 100 | > 100 | > 100 | > 100 | > 100 | > 100 | > 100 |  | 
Nc1ccc2c3c1cccc3c(=O)n1c3ccc(Cc4ccc5c(c4)nc4c6ccc(N)c7cccc(c(=O)n54)c76)cc3nc21 | > 100 | > 100 | > 100 | > 100 | > 100 | > 100 | > 100 | > 100 | > 100 | > 100 |  | 
CC(=O)N1CN2C(=O)CCC2c2cc(C)ccc21 (configuration not stated) | > 100 | > 100 | > 100 | > 100 | > 100 | > 100 | > 100 | > 100 | > 100 | > 100 |  | 
c1ccc(CN2CCC(CNc3ncnc4ccccc34)C2)cc1 (configuration not stated) | > 100 | > 100 | > 100 | > 100 | > 100 | > 100 | > 100 | 85.8 | > 100 | > 100 |  | 
CC(OC(C)(C)C)C(NC(=O)OCC1c2ccccc2-c2ccccc21)C(=O)NC(Cc1ccccc1)C(=O)OCc1ccccc1 (configuration not stated) (Fmoc-Thr(tBu)-Phe-OBn; configuration not given here) | > 100 | > 100 | > 100 | > 100 | > 100 | > 100 | > 100 | > 100 | > 100 | > 100 |  | 
CC(C)(C)c1cc(C(C)(C)C)c2sc(=O)oc2c1O | 32.8 | 27.7 | 38.1 | 23.8 | 24.8 | > 100 | 33.2 | 32.5 | 30.9 | 27.1 |  | 
CCOC1OC(C)(C=C(C#N)C#N)CCC1C (configuration not stated) | > 100 | 36.8 | > 89.2 | 97.7 | > 100 | > 86 | > 100 | > 100 | 56.6 | > 86.6 |  | 
Cc1c(-c2ccccc2)oc(=O)c2ccccc12 | > 100 | 46.6 | 51.2 | 43.7 | 98.2 | 48.2 | 43.5 | 37.3 | 36.2 | 38.1 |  | 
C[N+](C)([O-])C12CC3CC(CC(C3)C1)C2 | > 100 | > 100 | > 100 | 80.6 | > 100 | > 100 | > 100 | > 100 | > 100 | > 100 |  | 
COc1ccc(/C=C2\N=C3N(Cc4ccccc4)C=C(N)N3C2=O)cc1 | > 100 | > 100 | > 100 | > 100 | > 100 | > 100 | > 100 | > 100 | > 100 | > 100 |  | 
Nc1ncnc2c1ncn2CCCNO | > 100 | > 100 | > 100 | > 100 | > 100 | > 100 | > 100 | > 100 | > 100 | > 100 |  | 
N=C(N)c1ccc(N=Nc2c(O)c(C(=O)Nc3ccccc3)cc3ccccc23)cc1 | > 100 | > 74.6 | 30.2 | > 100 | > 53.6 | 5.92 | 41 | > 100 | 43 | 54.5 |  | 
CCOC(=O)NC(Nc1ccc(C(=O)O)cc1)(C(F)(F)F)C(F)(F)F | > 100 | > 100 | > 100 | > 100 | > 100 | > 100 | > 100 | > 100 | > 100 | > 100 |  | 

Structure (SMILES) | TGI [1] [µM] | TGI [2] [µM] | TGI [3] [µM] | TGI [4] [µM] | TGI [5] [µM] | TGI [6] [µM] | TGI [7] [µM] | TGI [8] [µM] | TGI [9] [µM] | TGI [10] [µM] | GI50 [9] [µM] | GI50 [6] [µM]
CC(C)NC(=O)OCCN=C1c2ccccc2C(Br)C(Br)c2ccccc21 (configuration not stated) | 30 | 7.14 | 8.34 | 8.97 | 25.4 | 1.69 | 30 | 35.1 | 9.64 | 43.4 |  | 
CC1=NN(C(=O)CC(=O)Nc2cccc(C)c2)C(=O)C1N=Nc1ccc(C(=O)O)cc1 (configuration not stated) | > 100 | > 100 | > 100 | > 100 | > 100 | > 100 | > 100 | > 100 | > 100 | > 100 |  | 
N#Cc1cc2c(n(C3OC(CO)C(O)C(O)C3O)c1=S)CCC2 (configuration not stated) | > 100 | > 100 | > 100 | > 100 | > 100 | > 100 | > 100 | > 100 | > 100 | > 100 |  | 
C=C(C)C1CCC2(C)C1CCC1(C)C2CCC2C3(C)C4OC(OC4=O)C(C)(C)C3CCC21C (configuration not stated) | > 100 | > 100 | > 100 | > 100 | > 100 | > 100 | > 100 | > 100 | > 100 | > 100 |  | 
O=[N+]([O-])/C=C/c1cn(CCCCCCCCn2cc(/C=C/[N+](=O)[O-])c3ccccc32)c2ccccc12 | > 10 | > 10 | > 10 | > 10 | > 10 | > 10 | > 10 | > 10 | > 10 | > 10 |  | 
CC1CC(C)(C)CC(OCCN2CCCCC2)(c2ccccc2)C1 (configuration not stated) | 19.8 | 27.3 | 22.6 | 20.6 | 30.3 | 24.9 | 26.5 | 29.7 | 29.4 | 25.4 |  | 
O=c1ccc(=O)c2c1c1[nH]c3ccccc3c1c1c(=O)c3ccccc3c(=O)c21 | > 10 | > 10 | > 10 | > 10 | > 10 | > 10 | > 10 | > 10 | > 10 | > 10 |  | 
Cc1cc(C)nc(NS(=O)(=O)c2ccc(NC(=O)c3ccc4nc5ccccc5c(Nc5ccc(S(=O)(=O)N=C(N)N)cc5)c4c3)cc2)n1 | > 100 | > 100 | > 100 | > 100 | > 100 | > 100 | > 100 | > 100 | > 100 | > 100 |  | 
COC(=O)[C@]1(c2cc3ccccc3[nH]2)CC2CNC1C1OC(C)(C)OC21 (some centres not stated) | > 100 | > 100 | > 100 | > 100 | > 100 | > 100 | > 100 | > 100 | > 100 | > 100 |  | 
CN=C1C=C(/N=C2/C=C(N/C(=C\C#N)C(C)(C)O)OC2(C)C)OC1(C)C | > 100 | > 72.5 | > 100 | 82.3 | > 100 | > 74 | > 100 | > 100 | > 100 | > 100 |  | 
COC(=O)c1sc2c(Cl)c(Cl)sc2c1Cl | > 100 | > 100 | > 100 | > 100 | > 100 | > 100 | > 100 | > 100 | > 100 | > 100 |  | 
FC(F)(Sc1ncccn1)c1nc2ccccc2o1 | > 100 | > 100 | > 100 | > 100 | > 100 | > 100 | > 100 | > 100 | > 100 | > 100 |  | 
O=C(Nc1nnc(-c2ccccc2)o1)C(SC(=S)N1CCCC1)c1ccccc1 (configuration not stated) | > 100 | > 100 | > 100 | 57.8 | > 100 | 71.4 | > 100 | > 100 | 91.8 | > 100 |  | 
CSC1=C(C)C(/C=N/Nc2ccc([N+](=O)[O-])cc2)=C(C)N(c2ccccc2)S1(=O)=O | > 100 | > 100 | > 100 | > 100 | > 100 | > 100 | > 100 | > 100 | > 100 | > 100 |  | 
CC(C)(C)OC(=O)N1CCC2(CC1)C(=O)NCN2c1ccccc1 | > 100 | > 100 | > 100 | > 100 | > 100 | > 100 | > 100 | > 100 | > 100 | > 100 |  | 
COc1ccc(Nc2nc(N)c(C(=O)c3ccco3)s2)cc1 | > 100 | > 100 | > 80.1 | > 70.2 | > 100 | > 56.1 | > 100 | > 100 | 63.2 | > 100 |  | 
COc1cc2c(cc1OCCN1CCN(CCOc3cc4c(cc3OC)C(=O)N3CCC[C@H]3C=N4)CC1)N=C[C@@H]1CCCN1C2=O | > 100 | > 78.3 | > 76.8 | > 73.7 | > 91.6 | > 100 | > 100 | > 100 | > 64.3 | > 100 |  | 4.49
CC(C)(C)[C@H]1NC(=O)CN1C(=O)OCc1ccccc1 | > 100 | > 100 | > 100 | > 100 | > 100 | > 100 | > 100 | > 100 | > 100 | > 100 |  | 
CCOc1ccc(Nc2nc(N)nc(N)c2N=O)cc1 | > 100 | 33.4 | > 100 | 83.3 | > 100 | > 100 | > 100 | > 100 | > 100 | > 100 |  | 
COC1=C(OC)C(=O)C(Cc2c(-c3ccccc3)nc3sc(Cl)cn23)=C(C)C1=O | 49.1 | 29.9 | 41.8 | 30.5 | 30.7 | 53 | 38.2 | 27 | 31.6 | 30.4 |  | 
